Assay results taken from paper PMC12196213, “New Insights into the Anticancer Effects and Toxicogenomic Safety of Two β-Lapachone Derivatives” (Pharmaceuticals, 2025).

Tests used:
[1] = test system: peripheral blood erythrocytes from Swiss mice; experiment: Alkaline comet assay in vivo; design: species or system Mus musculus; settings: for damage index (comet assay) compared to negative control / damage frequency (comet assay) compared to negative control: intraperitoneally
Procedure: (§1) Forty female Mus musculus mice (Swiss strain) were used. The animals were divided into 8 groups, with 5 animals each: G1—negative control (NC) treated with the vehicle solution intraperitoneally; G2—positive control (PC) treated intraperitoneally with cyclophosphamide at a dose of 30 mg/kg; groups exposed to the BV3 derivative—Group BV3—I intraperitoneally at doses of 2000 mg/kg; Group BV3—II 1000 mg/kg; Group BV3—III 500 mg/kg; and groups exposed to BV5—Group BV5—I, received BV5 intraperitoneally at doses of 2000 mg/kg; Group BV5—II 1000 mg/kg; and Group BV5—III 500 mg/kg. For the comet assay, approximately 0.5 mL of blood from each animal was collected via the tail vein 6–8 h after administration of the compounds. For the micronucleus test, 1 mL of blood from each animal was collected by cardiac puncture 48 h after administration of the compounds. For that collection, the mice were anesthetized with ketamine (100 mg/kg) and xylazine (10 mg/kg), intraperitoneally. Immediately after blood collection, the animals were euthanized with high doses of anesthetics (ketamine 300 mg/kg and xylazine 30 mg/kg). The in vivo experiments were approved by the Ethics Committee on the Use of Animals (CEUA) of the Federal University of Pernambuco, under process no. 004/2023.
The female mice (n = 40) were equally distributed into 8 experimental groups; the groups were composed of 5 female animals each. After administering the solutions and compounds to the groups, blood samples were taken 6 and 8 h after treatment. Subsequently, 15 µL of blood was used, which was homogenized with 100 µL of low-melting-point agarose (LM agarose) and subsequently deposited on slides previously prepared with standard agarose. The slides were covered with coverslips and left at 4 °C for 10 min. After refrigeration, the coverslips were removed and the slides were placed in a lysis solution (2.5 M NaCl, 100 mM EDTA, 10 mM tris, 1% Triton x-100, 10% DMSO, pH 13) for 48 h. After lysis, the slides were left in an alkaline electrophoresis buffer ([…] and […] EDTA disodium salt, pH 13) for 20 min to unroll the DNA and then subjected to electrophoresis in a horizontal vat for 20 min, with a current of ± 300 mA and potential difference of 32 V. After electrophoresis, the slides were neutralized for 15 min in 0.4 M tris-HCl buffer, pH 7.5, and fixed for 5 min in absolute ethanol. The slides were stained with 100 µL of a 1 µg/mL acridine orange solution. All test steps were carried out under red light. To analyze damage levels, 100 nucleoids from each animal were evaluated for damage level. For this, each nucleoid was classified into one of five classes according to the proportion of DNA in the comet’s tail and head: 0 (no damage); 1 (little apparent damage); 2 (medium damage); 3 (medium damage with longer tail); and 4 (maximum damage). The Damage Index (DI) was thus calculated according to the formula DI=0×nºclass comets 0+1×nºclass comets 1+2×nºclass comets 2+3×nºclass comets 3+4×(nºclass comets 4)
Thus, the values obtained could range from 0 (no damage) to 400 (maximum damage). Additionally, the Frequency of damage (FD) was calculated based on the percentage of all nucleoids with some damage (class 1 to class 4) relative to the total number of nucleoids counted per animal: FD=nºofdamaged comets−nºclass comets 0×100/(nºtotal)

[2] = design: method as in PMID 35934135; settings: cited from earlier work; for toxicity category, Globally Harmonized System of Classification and Labelling of Chemicals: acute toxicity; for deaths in acute toxicity experiments: dose of 2000 mg/kg
[3] = test system: polychromatic erythrocytes (PCE) from Swiss mice; experiment: Micronucleus assay in vivo; design: species or system Mus musculus; settings: intraperitoneally, 500, 1000 and 2000 mg/kg, blood 48 h after administration
Procedure: as §1, with “Immediately after blood collection, the animals were euthanized with high doses of anesthetics (ketamine 300 mg/kg and xylazine 30 mg/kg). The in vivo experiments were approved by the Ethics Committee on the Use of Animals (CEUA) of the Federal University of Pernambuco, under process no. 004/2023.” left out
The same mice from the comet test (females n = 40) were used, equally with the 8 experimental groups mentioned above. […] Two slides were prepared per animal, in which 2000 polychromatic erythrocytes (PCE) were analyzed for the presence of micronuclei. The analysis was carried out using a Zeiss Axio Imager M2 fluorescence microscope, with a 40× objective and Alexa Fluor 488 filter (Carl Zeiss AG™, Germany).

HeLa cells = experiment: Morphological analysis, rapid panoptic staining; assay type: cell-based, human; settings: 72 h, at IC50 and 2 × IC50
Procedure: Following the screening of IC50 values and SI in solid tumor cells, indications of potential cell death were explored in the most sensitive cell line. The morphological changes were evaluated according to protocols previously published with modifications. Thus, HeLa cells were seeded in 12-well plates at a concentration of 4 × 10^5 cells/mL and incubated overnight for adhesion. […] After the treatment period, the medium was aspirated, and the plate was washed twice with PBS. The cells were fixed and stained using the Panoptic Rapid Kit following the manufacturer’s protocol. Morphological analyses were conducted to observe cellular alterations indicative of cell death, including cellular volume reduction, membrane integrity, karyolysis, pyknosis, karyorrhexis, apoptotic bodies, vacuoles, and cellular debris.

| Compound | frequency of damage (comet assay) ([1]; any of the tested doses (500, 1000, 2000 mg/kg)) | damage index (comet assay) compared to negative control ([1]; 2000 mg/kg) | damage index (comet assay) compared to negative control ([1]; 500 and 1000 mg/kg) | toxicity category, Globally Harmonized System of Classification and Labelling of Chemicals [2] | deaths in acute toxicity experiments [2] | number of micronuclei compared to negative control [3] | morphological changes (HeLa cells) | damage frequency (comet assay) compared to negative control ([1]; 2000 mg/kg) | damage frequency (comet assay) compared to negative control ([1]; 500 and 1000 mg/kg) |
| --- | --- | --- | --- | --- | --- | --- | --- | --- | --- |
| Cc1ccc(NC(=S)N/N=C2\C(=O)C3=C(OC(C)(C)CC3)c3ccccc32)cc1 [BV5, 2-(2,2-dimethyl-5-oxo-3,4-dihydro-2H-benzo[h]chromen-6(5H)-ylidene)-N-(p-tolyl)-thiocarbohydrazide] | no difference | increase | no differences | Category 5 | no deaths | no differences | loss of membrane integrity, reduced cellular volume, presence of fragmented/pyknotic nuclei, chromatin condensation, and cellular debris | – | – |
| CC1(C)CCC2=C(O1)c1ccccc1/C(=N/NC(=S)Nc1ccc([N+](=O)[O-])cc1)C2=O [BV3, 2-(2,2-dimethyl-5-oxo-3,4-dihydro-2H-benzo[h]chromen-6(5H)-ylidene)-N-(4nitrophen-yl)thio-carbohydrazide] | – | decrease | no significant differences | Category 5 | no deaths | no differences | reduced cellular volume, cells with condensed chromatin, and cellular debris | decrease | no significant differences |
